Like-named read-outs stand apart in the source and are kept apart here.
Conditions: amide bond, DMF
[1] = PyBOP/HOBt/NMM, 16.0 h, 15 steps
[2] = PyBOP/HOBt/NMM, 16.0 h, 17 steps

Compound	ring closure, yield of all isomers [1]	ring closure, yield of all isomers [2]	other results
C[C@@H]1NC(=O)CNC(=O)[C@@H]2C[C@@H](O)CN2C(=O)[C@@H]2CCCN2C(=O)[C@H](Cc2ccc(O)cc2)NC(=O)[C@H](CC(N)=O)NC1=O [Cyclo(Tyr-Pro-4Hyp-Gly-Ala-Asn)]	4.4%	–	–
C[C@@H]1NC(=O)CNC(=O)[C@@H]2C[C@@H](O)CN2C(=O)[C@@H]2CCCN2C(=O)[C@H](Cc2ccc(O)cc2)NC(=O)[C@H](CC(N)=O)NC(=O)CNC1=O [Cyclo(Tyr-Pro-4Hyp-Gly-Ala-Gly-Asn)]	–	7%	–
C[C@@H]1NC(=O)CNC(=O)[C@H](CC(N)=O)NC(=O)[C@H](Cc2ccc(O)cc2)NC(=O)[C@@H]2CCCN2C(=O)[C@@H]2C[C@@H](O)CN2C(=O)CNC1=O [cyclo(-Gly-Ala-Gly-Hyp-Pro-Tyr-Asn-)]	–	6.2%	–
C[C@@H]1NC(=O)CNC(=O)[C@H](CCC(N)=O)NC(=O)[C@H](Cc2ccc(O)cc2)NC(=O)[C@@H]2CCCN2C(=O)[C@@H]2C[C@@H](O)CN2C(=O)CNC1=O [cyclo(-Gly-Ala-Gly-Hyp-Pro-Tyr-Gln-)]	–	6.6%	–
C[C@@H]1NC(=O)[C@H](CO)NC(=O)[C@H](C)NC(=O)[C@H](Cc2ccc(O)cc2)NC(=O)[C@H](CC(N)=O)NC(=O)CNC1=O [cyclo(-Tyr-Ala-Ser-Ala-Gly-Asn-)]	4.3%	–	–
NC(=O)C[C@@H]1NC(=O)CNC(=O)[C@H](Cc2ccc(O)cc2)NC(=O)[C@H](CC(N)=O)NC(=O)CNC(=O)[C@H](Cc2ccc(O)cc2)NC1=O [cyclo(-Tyr-Gly-Asn-Tyr-Gly-Asn-)]	–	–	ring closure, yield of all isomers (PyBOP, 16 steps): 14%
